The subject of experiment [1] is HCV replicon in HUH-7 cells. Description: HCV replicon FRET assay. In kind it is cell-based, HCV strain 1b. Particulars: Hepatitis C virus. From the text:
An HCV replicon whole cell system was established as described by Lohmann V, Korner F, Koch J, Herian U, Theilmann L, Bartenschlager R., Science 285(5424):110-3 (1999). This system enabled us to evaluate the effects of our HCV Protease compounds on HCV RNA replication. Briefly, using the HCV strain 1b sequence described in the Lohmann paper (Assession number: AJ238799), an HCV cDNA was synthesized by Operon Technologies, Inc. (Alameda, Calif.), and the full-length replicon was then assembled in plasmid pGem9zf(+) (Promega, Madison, Wis.) using standard molecular biology techniques. The replicon consists of (i) the HCV 5′ UTR fused to the first 12 amino acids of the capsid protein, (ii) the neomycin phosphotransferase gene (neo), (iii) the IRES from encephalomyocarditis virus (EMCV), and (iv) HCV NS3 to NS5B genes and the HCV 3′ UTR. Plasmid DNAs were linearized with ScaI and RNA transcripts were synthesized in vitro using the T7 MegaScript transcription kit (Ambion, Austin, Tex.) according to manufacturer's directions. In vitro transcripts of the cDNA were transfected into the human hepatoma cell line, HUH-7. […] Resulting cell lines were characterized for positive and negative strand RNA production and protein production over time.
The HCV replicon FRET assay was developed to monitor the inhibitory effects of compounds described in the disclosure on HCV viral replication. HUH-7 cells, constitutively expressing the HCV replicon, were grown in Dulbecco's Modified Eagle Media (DMEM) (Gibco-BRL) containing 10% Fetal calf serum (FCS) (Sigma) and 1 mg/ml G418 (Gibco-BRL). Cells were seeded the night before (1.5×10^4 cells/well) in 96-well tissue-culture sterile plates. Compound and no compound controls were prepared in DMEM containing 4% FCS, 1:100 Penicillin/Streptomysin (Gibco-BRL), 1:100 L-glutamine and 5% DMSO in the dilution plate (0.5% DMSO final concentration in the assay). Compound/DMSO mixes were added to the cells and incubated for 4 days at 37° C. After 4 days, cells were first assessed for cytotoxicity using alamar Blue (Trek Diagnotstic Systems) for a CC50 reading. The toxicity of compound (CC50) was determined by adding 1/10th volume of alamar Blue to the media incubating the cells. After 4 hours, the fluorescence signal from each well was read, with an excitation wavelength at 530 nm and an emission wavelength of 580 nm, using the Cytofluor Series 4000 (Perspective Biosystems). Plates were then rinsed thoroughly with Phosphate-Buffered Saline (PBS) (3 times 150 μl). The cells were lysed with 25 μl of a lysis assay reagent containing an HCV protease substrate (5× cell Luciferase cell culture lysis reagent (Promega #El 53A) diluted to 1× with distilled water, NaCl added to 150 mM final, the FRET peptide substrate (as described for the enzyme assay above) diluted to 10 μM final from a 2 mM stock in 100% DMSO. […]. The plate was then placed into the Cytofluor 4000 instrument which had been set to 340 nm excitation/490 nm emission, automatic mode for 21 cycles and the plate read in a kinetic mode. EC50 determinations were carried out as described for the IC50 determinations.
On the technique in general: Replicon systems follow genome replication, usually without infectious particles.

Experiment [2] deals with HCV replicon (Renilla luciferase) in HUH-7 cells. Description: HCV replicon luciferase reporter assay. In kind it is cell-based, HCV strain 1b. As to conditions: Huh-7, 96 h, 4 days. An excerpt: An HCV replicon whole cell system was established as described by Lohmann V, Korner F, Koch J, Herian U, Theilmann L, Bartenschlager R., Science 285(5424):110-3 (1999). This system enabled us to evaluate the effects of our HCV Protease compounds on HCV RNA replication. Briefly, using the HCV strain 1b sequence described in the Lohmann paper (Assession number: AJ238799), an HCV cDNA was synthesized by Operon Technologies, Inc. (Alameda, Calif.), and the full-length replicon was then assembled in plasmid pGem9zf(+) (Promega, Madison, Wis.) using standard molecular biology techniques. […]
As a secondary assay, EC50 determinations from the replicon FRET assay were confirmed in a replicon luciferase reporter assay. […] Following 4 days in a 37° C./5% CO2 incubator, cells were analyzed for Renilla Luciferase activity using the Promega Dual-Glo Luciferase Assay System. […] Plates were read on a Packard TopCount NXT using a luminescence program.
The percentage inhibition was calculated using the formula below: % control=average luciferase signal in experimental wells (+compound)
average luciferase signal in DMSO control wells (−compound) The values were graphed and analyzed using XLfit to obtain the EC50 value.

The next experiment addresses T1, human liver cathepsin B (Homo sapiens, UniProt P07858).
T1 construct: purchased Sigma or EMDbiosciences; host or cells: human liver (as named)
Description: Specificity assay, cathepsin B (AMC substrate). Particulars: read-out: Cathepsin B activity in the specificity assays (IC50). In kind it is biochemical. Here is the method: The specificities of compounds of the present disclosure were determined against a variety of serine proteases: human neutrophil elastase (HNE), porcine pancreatic elastase (PPE) and human pancreatic chymotrypsin and one cysteine protease: human liver cathepsin B. In all cases, a 96-well plate format protocol using colorimetric p-nitroaniline (pNA) substrate or fluorometric Amino-Methyl-Coumarin (AMC) substrate, specific for each enzyme was used as described previously (PCT Patent Application No. WO 00/09543) with some modifications. All enzymes were purchased from Sigma or EMDbiosciences while the substrates were from Bachem.
Each pNA assay included a 2 h enzyme-inhibitor pre-incubation at room temperature followed by addition of substrate and hydrolysis to ˜15% conversion as measured on a Spectramax Pro microplate reader. The cathepsin B assay was initiated by adding substrate to a 10 min enzyme-inhibitor pre-incubation at room temperature, and the assay plate measured immediately using the Cytofluor Series 4000. Compound concentrations varied from 100 to 0.4 μM depending on their potency.
The final conditions for each assay were as follows: […]
The percentage of inhibition was calculated using the formula: [1−((UVinh−UVblank)/(UVctl−UVblank))]×100 […]

The EC50 is the concentration giving half of the maximal effect. Usually IC50 stands for the concentration that inhibits the measured activity by half.

Read-outs that look alike come from different tables or passages of the source. Where only a bound is given, the exact number is not on record here.

As to `COc1c(O[C@@H]2C[C@H]3C(=O)N[C@]4(C(=O)NS(=O)(=O)C5CC5)C[C@H]4/C=C\CCCCC[C@H](NC(=O)OC(C)(C)C)C(=O)N3C2)ccc2c(Cl)nccc12` [Compound 3], the concentration giving a half-maximal response (EC50) in experiment [1] (96 h, HUH-7 replicon cells, 4 days, read-out: EC50 value in the replicon FRET assay) was 14.6 nM; in experiment [1] (Huh-7, HCV replicon, read-out: EC50 Activity Range) it was less than 100 nM; in experiment [2], 5.5 nM. The IC50 at human liver cathepsin B came to 100000 nM.
